Molecules are shown by their SMILES. A value given as a limit tells only on which side of the number the result lay.

For one experiment, the system named is Normal Human Serum (NHS). As to the kind of experiment: Hemolysis assay: lysis of rabbit erythrocytes (RE) by Normal Human Serum (NHS). Particulars: rabbit erythrocyte, 0.5 h, Table 1, hemolysis of rabbit erythrocytes with NHS, GVB0 plus 10 mM Mg-EGTA, 37° C., read-out: IC50. Type of experiment: cell-based. On the procedure: The hemolysis assay was previously described by G. Ruiz-Gomez, et al., J. Med. Chem. (2009) 52: 6042-6052. Prior to the assay, the optimum concentration of Normal Human Serum (NHS) needed to achieve 100% lysis of rabbit erythrocytes (RE) is determined by titration. In the assay, NHS (Complement Technology) is diluted in GVB^0 Buffer (0.1% gelatin, 5 mM Veronal, 145 mM NaCl, 0.025% NaN3, pH 7.3, Complement Technology) plus 10 mM Mg-EGTA and incubated with test compound at various concentrations for 15 minutes at 37° C. RE (Complement Technology) freshly suspended in GVB^0 plus 10 mM Mg-EGTA are added to a final concentration of 1×10^8 cells/mL and reactions are incubated for 30 minutes at 37° C. Positive control reactions (100% lysis) consist of GVB^0 plus 10 mM Mg-EGTA with NHS and RE but without test compound; negative control reactions (0% lysis) consist of GVB^0 plus 10 mM Mg-EGTA with RE only. Samples are centrifuged at 2000 g for 3 minutes and supernatants collected. Absorbance at 405 nm (A405) is recorded using a microplate spectrophotometer. IC50 values are calculated by nonlinear regression from the percentage of hemolysis as a function of test compound concentration.
As usually defined, the IC50 is the concentration needed to halve the response being measured. Take `CCN[C@H](CC(=O)N1CC2CCC1CN2c1nc(N)c2cc(OC)c(OC)c(F)c2n1)c1ccc(F)cc1` (stereo partly drawn) [Compound 15, (3R)-1-(5-(4-Amino-8-fluoro-6,7-dimethoxyquinazolin-2-yl)-2,5-diazabicyclo[2.2.2]octan-2-yl)-3-(ethylamino)-3-(4-fluorophenyl)propan-1-one]: the IC50 is > 10000 nM.
Turning to `CCN[C@H](CC(=O)N1CCC(c2nc(N)c3cc(OC)c(OC)c(F)c3n2)=C(C(=O)OC)C1)c1ccc(F)cc1` [Compound 6, Methyl (R)-4-(4-amino-8-fluoro-6,7-dimethoxyquinazolin-2-yl)-1-(3-(ethylamino)-3-(4-fluorophenyl)propanoyl)-1,2,5,6-tetrahydropyridine-3-carboxylate], the IC50 is 1000 to 10000 nM.
On the same count and under the same terms, in the case of `COc1cc2c(N)nc(N3CC4CCC(C3)N4C(=O)C=Cc3ccc(F)cc3)nc2c(F)c1OC` [Compound 14, 1-(3-(4-Amino-8-fluoro-6,7-dimethoxyquinazolin-2-yl)-3,8-diazabicyclo[3.2.1]octan-8-yl)-3-(4-fluorophenyl)prop-2-en-1-one] it was > 10000 nM; in that of `CCN[C@H](CC(=O)N1C(C)C=C(c2nc(N)c3cc(OC)c(OC)c(F)c3n2)CC1C)c1ccc(F)cc1` (stereo partly drawn) [Compound 10, (3R)-1-(4-(4-Amino-8-fluoro-6,7-dimethoxyquinazolin-2-yl)-2,6-dimethyl-3,6-dihydropyridin-1(2H)-yl)-3-(ethylamino)-3-(4-fluorophenyl)propan-1-one], < 1000 nM.

The experiment is the same for the next values; noted with them: rabbit erythrocyte, 0.5 h, Table 2, hemolysis of rabbit erythrocytes with NHS, GVB0 plus 10 mM Mg-EGTA, 37° C., read-out: IC50 (Stars).
On to `CCN[C@H](CC(=O)N1CC2CCC(C1)N2c1nc(N)c2cc(OC)c(OC)c(F)c2n1)c1ccc(C#N)cc1` [Compound 16, 4-((1R)-3-(8-(4-Amino-8-fluoro-6,7-dimethoxyquinazolin-2-yl)-3,8-diazabicyclo[3.2.1]octan-3-yl)-1-(ethylamino)-3-oxopropyl)benzonitrile], for which the IC50 was < 1000 nM.

The same experiment, now with this note: rabbit erythrocyte, 0.5 h, Table 3, hemolysis of rabbit erythrocytes with NHS, GVB0 plus 10 mM Mg-EGTA, 37° C., read-out: IC50 (Stars).
In the case of `COc1cc(C)c2[nH]ccc2c1CN1CCC(C)CC1c1ccc(C(=O)O)c2c1CCCC2` (stereo not drawn) [Compound 28, 4-(1-((5-Methoxy-7-methyl-1H-indol-4-yl)methyl)-4-methylpiperidin-2-yl)-5,6,7,8-tetrahydronaphthalene-1-carboxylic Acid], the concentration for half-maximal inhibition (IC50) was < 1000 nM.
Same read-out and setting: in the case of `COc1cc(C)c2[nH]ccc2c1CN1CC[C@@H](C)C[C@H]1c1ccc(P(=O)(O)O)cc1` [Compound 32, (4-((2S,4R)-1-((5-Methoxy-7-methyl-1H-indol-4-yl)methyl)-4-methylpiperidin-2-yl)phenyl)phosphonic Acid] it was < 1000 nM; in that of `COc1cc(C)c2[nH]ccc2c1CN1CC[C@@H](C)C[C@H]1c1ccc(P(C)(=O)O)cc1` [Compound 29, 4-((2S, 4R)-1-((5-Methoxy-7-methyl-1H-indol-4-yl)methyl)-4-methylpiperidin-2-yl) Phenyl (Methyl) Phosphinic Acid], < 1000 nM.
Still for that read-out and setting: in the case of `COc1cc(C)c2[nH]ccc2c1CN1CC[C@@H](C)C[C@H]1c1ccc(C(=O)O)c2c1CCCC2` [Compound 34, 4-((2S,4R)-1-((5-Methoxy-7-methyl-1H-indol-4-yl)methyl)-4-methylpiperidin-2-yl)-5,6,7,8-tetrahydronaphthalene-1-carboxylic Acid] it was < 1000 nM; in that of `COc1cc(C)c2[nH]ccc2c1CN1CC[C@@H](C)C[C@H]1c1ccc([S@](C)(=N)=O)cc1` [Compound 31, 5-Methoxy-7-methyl-4-(((2S,4R)-4-methyl-2-(4-((R)—S-methylsulfonimidoyl)phenyl)piperidin-1-yl)methyl)-H-indole], < 1000 nM.
Still for that read-out and setting: the value for `COc1cc(C)c2[nH]ccc2c1CN1CCC(F)(F)CC1c1ccc(C(=O)O)cc1` (stereo not drawn) [Compound 19, 4-(4,4-difluoro-1-((5-methoxy-7-methyl-1H-indol-4-yl)methyl)piperidin-2-yl)benzoic Acid] was > 10000 nM.
In the case of `COc1cc(C)c2[nH]ccc2c1CN1CC[C@@H](C)C[C@H]1c1ccc(S(C)(=N)=O)cc1` (stereo partly drawn) [Compound 22, 5-Methoxy-7-methyl-4-(((2 S,4R)-4-methyl-2-(4-(S-methylsulfonimidoyl)phenyl)piperidin-1-yl)methyl)-1H-indole], the IC50 was < 1000 nM.
